Measurements: patent publication US12402624B2, “Polymorphs of mesotrione metal chelate and preparation process” (priority 2017, dated 2025)

Experiment: Particle size distribution (D50, D90) of the polymorph
Type: physicochemical
Details: for Particle size D(0.9): D90; for Particle size D(0.5): median diameter D50
[1] = listed as Mesotrione copper chelate form II-a
[2] = listed as Mesotrione copper chelate form II-b
[3] = listed as Mesotrione copper chelate form I-a
[4] = listed as Mesotrione copper chelate form I-b

Row | Substance | Particle size D(0.9) [1] | Particle size D(0.9) [2] | Particle size D(0.5) [1] | Particle size D(0.5) [2] | Particle size D(0.9) [3] | Particle size D(0.9) [4] | Particle size D(0.5) [3] | Particle size D(0.5) [4]
1 | mesotrione copper chelate [Mesotrione copper chelate form II] | 34.08 μm | 27.33 μm | 17.58 μm | 16.74 μm | – | – | – | –
2 | mesotrione copper chelate [Mesotrione copper chelate form I] | – | – | – | – | 13.02 μm | 13.22 μm | 7.94 μm | 7.62 μm
